According to US8633315B2, “Substituted hydroxyethyl amine compounds as beta-secretase modulators and methods of use” (Amgen Inc., priority 2007, dated 2014):

How the values were obtained:
BACE1 = BACE1 (Homo sapiens, UniProt P56817); experiment: In vitro enzymatic BACE FRET (fluorescence resonance energy transfer) assay; type: biochemical
In short: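 Cleavage of a quenched peptide FRET substrate (50 nM) in 0.05 M acetate pH 4.2, 10% DMSO, 100 uM genapol, 1 h incubation. Reaction stopped by Tris neutralization; fluorescence read at excitation 488 nm / […].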

[1] = system: Cells stably expressing Amyloid Precursor Protein (APP); experiment: In vitro BACE cell-based assay (HEK cell assay): Aβ40 in conditioned medium by sandwich ELISA; conditions: Homo sapiens, Aβ40 in conditioned medium after 24 h incubation
In short: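 APP-stably-expressing cells were grown 24 h in DMEM/10% FBS, then treated for 24 h with 10-point doses starting at 100 μM or 10 μM, at 0.1% DMSO final. Aβ40 in conditioned medium was measured by sandwich ELISA (pAb40 capture, biotinylated 6E10 detection, europium time-resolved fluorescence); IC50 from percent inhibition.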

Sequence of BACE1 (P56817 46-501, species assumed): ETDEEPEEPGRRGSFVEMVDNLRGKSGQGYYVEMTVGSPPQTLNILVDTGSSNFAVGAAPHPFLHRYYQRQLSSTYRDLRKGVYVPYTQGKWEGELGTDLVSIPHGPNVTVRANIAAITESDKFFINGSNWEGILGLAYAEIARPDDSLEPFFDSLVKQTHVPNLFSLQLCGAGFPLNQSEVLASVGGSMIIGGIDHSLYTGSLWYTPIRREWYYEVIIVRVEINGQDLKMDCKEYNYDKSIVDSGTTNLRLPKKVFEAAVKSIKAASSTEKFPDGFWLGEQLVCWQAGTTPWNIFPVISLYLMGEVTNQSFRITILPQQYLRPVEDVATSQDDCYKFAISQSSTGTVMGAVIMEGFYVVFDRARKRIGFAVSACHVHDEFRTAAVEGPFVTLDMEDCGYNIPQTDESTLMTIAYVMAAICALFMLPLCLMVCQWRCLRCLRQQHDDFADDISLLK

## C=CC[C@H](NC(=O)c1cc(F)c(F)c(F)c1)[C@H](O)CN[C@H]1CC2(CCC2)Oc2ncc(CC(C)(C)C)cc21 [Example 79, N-((1S)-1-((1R)-2-(((4′S)-6′-(2,2-dimethylpropyl)-3′,4′-dihydrospiro[cyclobutane-1,2′-pyrano[2,3-b]pyridin]-4′-yl)amino)-1-hydroxyethyl)-3-buten-1-yl)-3,4,5-trifluorobenzamide]
BACE1
  IC50: 465 nM
[1]; HEK293, 24 h
  IC50: 1970 nM

## C=CC[C@H](NC(=O)COC)[C@H](O)CN[C@H]1CC2(CCC2)Oc2ncc(CC(C)(C)CF)cc21 [Example 80, N-((1S)-1-((1R)-2-(((4′S)-6′-(3-fluoro-2,2-dimethylpropyl)-3′,4′-dihydrospiro[cyclobutane-1,2′-pyrano[2,3-b]pyridin]-4′-yl)amino)-1-hydroxyethyl)-3-buten-1-yl)-2-(methyloxy)acetamide]
BACE1
  IC50: 84 nM
[1]; HEK293, 24 h
  IC50: 249 nM

## C=CC[C@H](NC(=O)COC)[C@H](O)CN[C@H]1CC2(CCC2)Oc2ncc([C@H](F)C(C)(C)C)cc21 [Example 82, N-((1S)-1-((1R)-2-(((4′S)-6′-((1R)-1-fluoro-2,2-dimethylpropyl)-3′,4′-dihydrospiro[cyclobutane-1,2′-pyrano[2,3-b]pyridin]-4′-yl)amino)-1-hydroxyethyl)-3-buten-1-yl)-2-(methyloxy)acetamide]
BACE1
  IC50: 69 nM
[1]; HEK293, 24 h
  IC50: 216 nM

## CC(=O)N[C@@H](CC=C1CCC1)[C@H](O)CN[C@H]1CC2(CCC2)Oc2ncc(CC(C)(C)C)cc21 [Example 83, N-((1S,2R)-1-(2-cyclobutylideneethyl)-3-(((4′S)-6′-(2,2-dimethylpropyl)-3′,4′-dihydrospiro[cyclobutane-1,2′-pyrano[2,3-b]pyridin]-4′-yl)amino)-2-hydroxypropyl)acetamide]
BACE1
  IC50: 11 nM
[1]; HEK293, 24 h
  IC50: 18 nM

## C#CC[C@H](NC(C)=O)[C@H](O)CN[C@H]1CC2(CCC2)Oc2ncc(CC(C)(C)C)cc21 [Example 84, N-((1S)-1-((1R)-2-(((4′S)-6′-(2,2-dimethylpropyl)-3′,4′-dihydrospiro[cyclobutane-1,2′-pyrano[2,3-b]pyridin]-4′-yl)amino)-1-hydroxyethyl)-3-butyn-1-yl)acetamide]
BACE1
  IC50: 40 nM
[1]; HEK293, 24 h
  IC50: 222 nM

## C#CC[C@H](NC(=O)COC)[C@H](O)CN[C@H]1CC2(CCC2)Oc2ncc(CC(C)(C)C)cc21 [Example 85, N-((1S)-1-((1R)-2-(((4′S)-6′-(2,2-dimethylpropyl)-3′,4′-dihydrospiro[cyclobutane-1,2′-pyrano[2,3-b]pyridin]-4′-yl)amino)-1-hydroxyethyl)-3-butyn-1-yl)-2-(methyloxy)acetamide]
BACE1
  IC50: 49 nM
[1]; HEK293, 24 h
  IC50: 511 nM

## CC#CC[C@H](NC(C)=O)[C@H](O)CN[C@H]1CC2(CCC2)Oc2ncc(CC(C)(C)C)cc21 [Example 86, N-((1S)-1-((1R)-2-(((4′S)-6′-(2,2-dimethylpropyl)-3′,4′-dihydrospiro[cyclobutane-1,2′-pyrano[2,3-b]pyridin]-4′-yl)amino)-1-hydroxyethyl)-3-pentyn-1-yl)acetamide]
BACE1
  IC50: 69 nM
[1]; HEK293, 24 h
  IC50: 104 nM

## C=CC[C@H](NC(=O)C(F)(F)F)[C@H](O)CN[C@H]1CC2(CCC2)Oc2ncc(CC(C)(C)C)cc21 [Example 94, N-((1S)-1-((1R)-2-(((4′S)-6′-(2,2-dimethylpropyl)-3′,4′-dihydrospiro[cyclobutane-1,2′-pyrano[2,3-b]pyridin]-4′-yl)amino)-1-hydroxyethyl)-3-buten-1-yl)-2,2,2-trifluoroacetamide]
BACE1
  IC50: 73 nM
[1]; HEK293, 24 h
  IC50: 154 nM

## C=CC[C@H](NC(=O)[C@H](C)OC)[C@H](O)CN[C@H]1CC2(CCC2)Oc2ncc(CC(C)(C)C)cc21 [Example 95, (2S)-N-((1S)-1-((1R)-2-(((4′S)-6′-(2,2-dimethylpropyl)-3′,4′-dihydrospiro[cyclobutane-1,2′-pyrano[2,3-b]pyridin]-4′-yl)amino)-1-hydroxyethyl)-3-buten-1-yl)-2-(methyloxy)propanamide]
BACE1
  IC50: 145 nM
[1]; HEK293, 24 h
  IC50: 637 nM

## C=CC[C@H](NC(=O)c1cccnc1)[C@H](O)CN[C@H]1CC2(CCC2)Oc2ncc(CC(C)(C)C)cc21 [Example 96, N-((1S)-1-((1R)-2-(((4′S)-6′-(2,2-dimethylpropyl)-3′,4′-dihydrospiro[cyclobutane-1,2′-pyrano[2,3-b]pyridin]-4′-yl)amino)-1-hydroxyethyl)-3-buten-1-yl)-3-pyridinecarboxamide]
BACE1
  IC50: 68 nM
[1]; HEK293, 24 h
  IC50: 135 nM

## C=CC[C@H](NC(=O)c1cncs1)[C@H](O)CN[C@H]1CC2(CCC2)Oc2ncc(CC(C)(C)C)cc21 [Example 97, N-((1S)-1-((1R)-2-(((4′S)-6′-(2,2-dimethylpropyl)-3′,4′-dihydrospiro[cyclobutane-1,2′-pyrano[2,3-b]pyridin]-4′-yl)amino)-1-hydroxyethyl)-3-buten-1-yl)-1,3-thiazole-5-carboxamide]
BACE1
  IC50: 61 nM
[1]; HEK293, 24 h
  IC50: 201 nM

## C=CC[C@H](NC(=O)c1cnccn1)[C@H](O)CN[C@H]1CC2(CCC2)Oc2ncc(CC(C)(C)C)cc21 [Example 98, N-((1S)-1-((1R)-2-(((4′S)-6′-(2,2-dimethylpropyl)-3′,4′-dihydrospiro[cyclobutane-1,2′-pyrano[2,3-b]pyridin]-4′-yl)amino)-1-hydroxyethyl)-3-buten-1-yl)-2-pyrazinecarboxamide]
BACE1
  IC50: 741 nM
[1]; HEK293, 24 h
  IC50: 1680 nM

## C=CC[C@H](NC(=O)c1ccccc1F)[C@H](O)CN[C@H]1CC2(CCC2)Oc2ncc(CC(C)(C)C)cc21 [Example 99, N-((1S)-1-((1R)-2-(((4′S)-6′-(2,2-dimethylpropyl)-3′,4′-dihydrospiro[cyclobutane-1,2′-pyrano[2,3-b]pyridin]-4′-yl)amino)-1-hydroxyethyl)-3-buten-1-yl)-2-fluorobenzamide]
BACE1
  IC50: 339 nM
[1]; HEK293, 24 h
  IC50: 1460 nM

## C=C(C)C[C@H](NC(=O)CF)[C@H](O)CN[C@H]1CC2(CCC2)Oc2ncc(CC(C)(C)C)cc21 [Example 100, N-((1S)-1-((1R)-2-(((4′S)-6′-(2,2-dimethylpropyl)-3′,4′-dihydrospiro[cyclobutane-1,2′-pyrano[2,3-b]pyridin]-4′-yl)amino)-1-hydroxyethyl)-3-methyl-3-buten-1-yl)-2-fluoroacetamide]
BACE1
  IC50: 3650 nM
[1]; HEK293
  IC50: 3330 nM

## C=C(C)C[C@H](NC(=O)c1ccc2c(c1)OC(F)(F)O2)[C@H](O)CN[C@H]1CC2(CCC2)Oc2ncc(CC(C)(C)C)cc21 [Example 101, N-((1S)-1-((1R)-2-(((4′S)-6′-(2,2-dimethylpropyl)-3′,4′-dihydrospiro[cyclobutane-1,2′-pyrano[2,3-b]pyridin]-4′-yl)amino)-1-hydroxyethyl)-3-methyl-3-buten-1-yl)-2,2-difluoro-1,3-benzodioxole-5-carboxamide]
BACE1
  IC50: 9880 nM
[1]; HEK293, 24 h
  IC50: ≥ 10000 nM

## C=CC[C@H](NC(=O)c1ccc2c(c1)OCO2)[C@H](O)CN[C@H]1CC2(CCC2)Oc2ncc(CC(C)(C)C)cc21 [Example 102, N-((1S)-1-((1R)-2-(((4′S)-6′-(2,2-dimethylpropyl)-3′,4′-dihydrospiro[cyclobutane-1,2′-pyrano[2,3-b]pyridin]-4′-yl)amino)-1-hydroxyethyl)-3-buten-1-yl)-1,3-benzodioxole-5-carboxamide]
BACE1
  IC50: 75 nM
[1]; HEK293, 24 h
  IC50: 707 nM
